Laboratory results published in PubChem BioAssay AID624373 (Broad Institute, 2012).
Inconclusive results are not listed. Active and inactive are the calls of the source.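 How the source made its calls: active means fitted curve reaches -35% activity change at up to twice the top valid dose, with every replicate test run active; inconclusive means replicate test runs disagree on the call; inactive means all runs inactive, no -35% crossing or signal rises.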

Tests used:
[1] = LMP1 TES2 NF-kB reporter inhibitors, dose response, cell-based, HEK293, luciferase, dry powder (AID 624373); details: HEK293 LMP1-TES2 NF-kB luciferase reporter, 16 h
[2] = system: HEK293 LMP1-TES2 NF-kB luciferase reporter, 16 h; test: as above

Compound | AC35 [2] [µM] | also measured
C[C@@H]1CCCCO[C@H](CN(C)C(=O)c2ccccc2)[C@H](C)CN([C@@H](C)CO)C(=O)c2cc(NC(=O)Nc3ccc(F)cc3)ccc2O1 | – | activity change, negative = inhibition ([1]; at 26 µM (top of the series)): 4.26% (inactive)
COc1ccccc1[C@]1(C)ON(c2ccccc2C(F)(F)F)C1=O | 8.16 | –
C[C@H](CO)N1C[C@H](C)[C@@H](CN(C)CC2CC2)OCCCC[C@H](C)Oc2ccc(NC(=O)Nc3cccc4ccccc34)cc2C1=O | 0.351 | –
O=C(CSc1nnc2c3ccccc3n(Cc3ccccc3)c2n1)NCc1ccco1 | 2.1 | –
c1ccc(Cn2c3ccccc3c3nnc(SCCN4CCCCC4)nc32)cc1 | 18.7 | –
C[C@@H]1CCCCO[C@H](CN(C)CC2CCCCC2)[C@H](C)CN([C@@H](C)CO)C(=O)c2cc(NC(=O)NC3CCCCC3)ccc2O1 | – | activity change, negative = inhibition ([1]; at 26 µM (top of the series)): 56.5% (inactive)
C/C(=N\NC(=S)Nc1ccccc1Cl)c1ccccn1 | 0.457 | –
C/C(=N\NC(=S)N1CC2CCC(CC2)C1)c1ccncn1 | 2.5 | –
O=C(Nc1cc(C(F)(F)F)cc(C(F)(F)F)c1)Nc1cnn(-c2ccc([N+](=O)[O-])cc2)c1C(F)(F)F | – | activity change, negative = inhibition ([1]; at 26 µM (top of the series)): 10.5% (inactive)
C/C(=N\NC(=S)N1CC2CCC(CC2)C1)c1cccc(C)n1 | 0.637 | –
Fc1ccc2c(c1)c1nnc(SCCN3CCOCC3)nc1n2Cc1ccccc1 | 3.94 | –
O=c1[nH]c(=O)n([C@H]2C[C@H](O)[C@@H](CO)O2)cc1C(F)(F)F | 3.09 | –
C/C=C/C/C=C/CCC(=O)[C@H]1O[C@H]1C(N)=O | 12 | –
C=C1C[C@]23C[C@@]1(O)CC[C@H]2[C@@]12C=C[C@H](O)[C@@](C)(C(=O)O1)[C@H]2[C@@H]3C(=O)O | – | activity change, negative = inhibition ([1]; at 15 µM (top of the series)): 2.14% (inactive)
CCc1ccc(/C=C2\SC(=S)N(CCCC(=O)Nc3ccccn3)C2=O)cc1 | – | activity change, negative = inhibition ([1]; at 26 µM (top of the series)): 12.1% (inactive)
Cc1ccc(NC(=O)C2CCN(S(=O)(=O)c3ccc4c(c3)NC(=O)C(C)S4)CC2)cc1Cl (centres undefined) | 1.65 | –
CCN1CCN(C(c2cccnc2)c2cc(Cl)c3cccnc3c2O)CC1 (centres undefined) | 3.32 | –
C[C@H]1CCCCO[C@@H](CN(C)CC2CCCCC2)[C@@H](C)CN([C@@H](C)CO)C(=O)c2cc(NC(=O)C3CCCCC3)ccc2O1 | 9.98 | –
CCC(Sc1nnc2c3ccccc3n(Cc3ccc(Br)cc3)c2n1)C(=O)NCCCN1CCOCC1 (centres undefined) | 3.2 | –
COc1ccc2[nH]c(C(=O)N/N=C/c3ccc(O)cc3O)cc2c1 | 3.63 | –

Compound | AC35 [2] [µM] | also measured
c1ccc(-c2cn3c4c(sc3n2)CCCC4)cc1 | – | activity change, negative = inhibition ([1]; at 26 µM (top of the series)): 7.22% (inactive)
Cc1cc(NC(=O)c2ccc3c(c2)OCCO3)no1 | – | activity change, negative = inhibition ([1]; at 26 µM (top of the series)): 1.38% (inactive)
O=C1/C(=C/c2ccncc2)SC(=S)N1Cc1ccccc1 | 18.2 | –
CSC(=S)N/N=C(\C)c1cccc(C)n1 | 3.01 | –
Cc1ccnc(NC(=O)c2ccc(C(=O)c3ccccc3)cc2)c1 | 11 | –
C/C(=N\NC(=S)N1CCCCC1)c1ccccn1 | 0.212 | –
COc1ccc(-c2cc3nc4n(c(=O)c3s2)CCC4)cc1 | – | activity change, negative = inhibition ([1]; at 26 µM (top of the series)): 23.4% (inactive)
CC12CCC3C(CC=C4CC(O)CCC43CO)C1CCC2OC(=O)c1ccccc1 (centres undefined) | 3.06 | –
Oc1cccc(C(Nc2nccs2)c2ccc3cccnc3c2O)c1 (centres undefined) | – | activity change, negative = inhibition ([1]; at 26 µM (top of the series)): 33.9% (inactive)
C/C(=N\NC(=S)N1CC2CCC(CC2)C1)c1ccccn1 | 1.18 | –
Nc1ccn([C@@H]2O[C@H](CO)[C@@H](O)C2O)c(=O)n1 (some centres undefined) | 8.54 | –
C[C@@H]1CN([C@@H](C)CO)C(=O)c2cc(NC(=O)Nc3ccc4c(c3)OCO4)ccc2O[C@H]1CN(C)CC1CCCCC1 | 0.895 | –
Cc1c(NC(=O)c2cccc(NC(=O)COc3ccccc3C#N)c2)c(=O)n(-c2ccccc2)n1C | – | activity change, negative = inhibition ([1]; at 26 µM (top of the series)): 23.3% (inactive)
CCc1sc(C(=O)Nc2ncccc2O)cc1C | – | activity change, negative = inhibition ([1]; at 26 µM (top of the series)): -12.6% (inactive)
COc1ccc(-c2csc3ncnc(NCCN4CCOCC4)c23)cc1 | – | activity change, negative = inhibition ([1]; at 26 µM (top of the series)): 30.3% (inactive)
C/C(=N\NC(=S)N1CCCCCC1)c1ccccn1 | 0.216 | –
C[C@H](CO)N1C[C@H](C)[C@@H](CN(C)CC2CCCCC2)OCCCC[C@H](C)Oc2ccc(NC(=O)Nc3cccc4ccccc34)cc2C1=O | – | activity change, negative = inhibition ([1]; at 26 µM (top of the series)): 27.7% (inactive)
C[C@@H]1CN([C@@H](C)CO)C(=O)c2cc(NC(=O)Nc3ccc(C(F)(F)F)cc3)ccc2O[C@@H](C)CCCCO[C@@H]1CN(C)CC1CCCCC1 | 1.86 | –
Cc1ccc(S(=O)(=O)NC(CC(C)C)C(=O)NCC(c2ccco2)N2CCCCC2)cc1 (centres undefined) | – | activity change, negative = inhibition ([1]; at 26 µM (top of the series)): -8.46% (inactive)
C=C1C[C@]23C[C@@]1(O)CC[C@@H]2c1cccc(C)c1[C@@H]3C(=O)O | 4.34 | –

Compound | AC35 [2] [µM] | also measured
C/C(=N\NC(=S)Nc1ccc(C)cc1)c1ccccn1 | 0.142 | –
COCCCNC(=O)C(C)Sc1nnc2c3cc(C)ccc3n(Cc3ccccc3F)c2n1 (centres undefined) | 5.01 | –
C/C(=N\NC(=S)N1CCC1)c1ccccn1 | 0.679 | –
COc1ccc(NC(=O)c2ccc(OC(C)C(=O)O)cc2)cc1Cl (centres undefined) | 11.8 | –
C[C@@H]1CCCCO[C@H](CN(C)C(=O)NC2CCCCC2)[C@H](C)CN([C@@H](C)CO)C(=O)c2cc(NC(=O)C3CCCCC3)ccc2O1 | 6.42 | –
C[C@H](CO)N1C[C@H](C)[C@@H](CN(C)Cc2ccc(-c3ccccc3)cc2)Oc2ccc(NC(=O)Nc3cccc4ccccc34)cc2CC1=O | 2.36 | –
C/C(=N\NC(=S)Nc1ccccc1)c1ccccn1 | 0.313 | –
CC(C)=CCN(C(=O)C#Cc1ccccc1)[C@H](CO)c1ccccc1 | 1.88 | –
C/C(=N\NC(=S)N1CCCCC1)c1cccc(C)n1 | 0.259 | –
C[C@@H]1CCCCO[C@@H](CN(C)Cc2ccccc2)[C@H](C)CN([C@H](C)CO)C(=O)c2cc(NC(=O)Nc3ccc4c(c3)OCO4)ccc2O1 | – | activity change, negative = inhibition ([1]; at 26 µM (top of the series)): 10.6% (inactive)
CNC[C@@H]1Oc2ccc(NS(=O)(=O)c3cn(C)cn3)cc2CC(=O)N([C@H](C)CO)C[C@@H]1C | – | activity change, negative = inhibition ([1]; at 26 µM (top of the series)): 37.6% (inactive)
C[C@H](CO)N1C[C@H](C)[C@H](CN(C)C(=O)Nc2ccc(C(F)(F)F)cc2)OCCCC[C@H](C)Oc2ccc(NC(=O)Nc3ccc(F)cc3)cc2C1=O | 5.4 | –
C/C(=N\NC(=S)N1CCCC1)c1ccccn1 | 0.262 | –
Cc1ccc(S(=O)(=O)Nc2ccc3c(c2)C(=O)N([C@@H](C)CO)C[C@H](C)[C@@H](CN(C)C(=O)CCC(F)(F)F)OCCCC[C@H](C)O3)cc1 | 0.288 | –
CCCSc1nnc2c3ccccc3n(Cc3ccccc3)c2n1 | 3.4 | –
C[C@@H]1CN([C@@H](C)CO)C(=O)c2cc(NC(=O)Nc3ccc(C(F)(F)F)cc3)ccc2O[C@@H](C)CCCCO[C@H]1CN(C)Cc1ccc(C(F)(F)F)cc1 | – | activity change, negative = inhibition ([1]; at 26 µM (top of the series)): 52.3% (inactive)
CC1CN(C(=O)CSc2nnc3c4ccccc4n(Cc4cccc(Cl)c4)c3n2)CCN1C(=O)c1ccccc1F (centres undefined) | 4.36 | –
C/C(=N\NC(=S)Nc1cccc(Cl)c1)c1ccccn1 | 0.314 | –
S=C(NCc1ccccn1)N/N=C/c1ccccn1 | 1.01 | –
